“And” between values parts separate entries of the source, which are not always exact repeats. Equal values may be shown once.
How the values were obtained:
[1] = test system: adenylyl cyclase (AC); test: AC activity of HeLa cell lysates after treatment of cells; type: cell-based, human; details: for effect on serum-induced inhibition of Gαs- and forskolin-stimulated AC activity: HeLa cells transfected with ODN (3 μM), 30 minutes 10% FBS; for effect of pre-treatment on S1P inhibition of Gαs-stimulated AC activity: HeLa cells, 0.5 μM S1P, PTX 1 μg/μl 24 hours, inhibitors 10 μM 20 minutes, ODN 3 μM, 60 minutes S1P
Procedure: Panel B: Adenylyl cyclase activity of HeLa cell lysates was measured in the absence and presence of serum as described in Materials and Methods section. The Gsα* (80 nM; grey bars)- and forskolin (100 μM; black bars)-stimulated specific activities of ACV were 124±10 pmol/mg/min and 464±89 pmol/min/mg, respectively. The basal activity was 11.75±2 pmol/mg/min. The mean ±SE of at least 2 experiments each done in triplicates is shown. Student T test: *p<0.001.
Panel E: Serum-starved HeLa cells were treated with sense, antisense, and 3M-as ODNs as described above. After 24 hours the cells were incubated for 30 minutes with 10% FBS. Cells were harvested and AC activity in presence of Gαs* (80 nM; grey bars) and forskolin (100 μM; black bars) was determined as described above. Data from at least 3 experiments measured in triplicates are presented as the mean±SEM. Student T test: *p<0.01, **p<0.05.
Panel B: Serum-starved HeLa cells were treated for varying times with 0.5 μM S1P. Cells were harvested and AC activity in presence of 80 nM Gαs* was determined as described in Material and Methods. Data from at least 4 experiments measured in triplicates are presented as the mean ±SE.
Panel C: Serum-starved HeLa cells were treated with sense, antisense, and 3M-as ODNs as described in the Materials and Methods section. After 24 hours the cells were incubated for the indicated times with 0.5 μM S1P. Cells were harvested and AC activity in presence of Gαs* (80 nM) was determined as described above. Data are presented as the mean ±SEM of three determinations.
Panel A: Serum-starved HeLa cells were treated with 0.5 μM S1P for 3 (grey bars) or 60 (black bars) minutes. Prior incubation with S1P the cells were incubated for 24 hours with […] pertussis toxin (PTX). AC activity in was determined presence of 80 nM Gαs*. Data from at least 2 experiments measured in triplicates are presented as the mean ±SE.
Panel B: Serum-starved HeLa cells were treated with 0.5 μM S1P. Prior incubation with S1P the cells were incubated for 20 minutes with 10 μM U73122, R031-8220, BAPTA-AM or U0126. AC activity in was determined presence of 80 nM Gαs*. Data from at least 2 experiments measured in triplicates are presented as the mean ±SE.
Spinal cords were lysed in 25 mM Hepes, pH 7.4, 1 mM EGTA and cell membranes were prepared as described by Kassis and Fishman. Aliquots were stored at −80° C. until use. AC activity assays were performed in a volume of 100 μl for 15 min at room temperature in the presence of 100 μM MgCl2 as previously described (Patel et al., 2002). Gsα* (80 nM) or forskolin (100 μM) were used to stimulate AC enzyme activity in membranes (10 μg protein).
The sequences of the oligodeoxynucleotides (ODNs) were chosen as published previously (Scholich et al., 2001). Sense: 5′-CTGTTCATGCCGGTT-3′, antisense: 5′-AACCGGCATGAACAG-3′, and antisense ODN harboring three mutations (3M-as; mutations are underlined): 5′-AATCCGTATGAACAC-3′. HeLa-cells were plated on 35 mm dishes (300,000 cells) and grown in DMEM medium (Gibco, Karlsruhe, Germany) containing 10% FBS and 1% penicillin/streptoMycin for 24 hours. The ODNs (3 μM each) were introduced into the cells by transfections using Tfx20 (Promega, Madison, Wis.) in 1 ml serum-free medium according to the instructions of the manufacturer. Two hours later, 1 ml DMEM (Gibco, Karlsruhe, Germany) containing 10% FBS was added. The cells were then incubated for 6 hours. Then the medium was exchanged against serum-free DMEM (Gibco, Karlsruhe, Germany), followed by an incubation for 16 hours in serum-free DMEM (Gibco, Karlsruhe, Germany) before being treated with 10% serum or […] S1P. The cells were then used for Western blots by adding boiling 1× Laemmli buffer or they were havested for AC activity assays as described above.

[2] = test system: PAM; test: PAM translocation to the plasma membrane in HeLa cells (immunofluorescence); type: cell-based, human; details: HeLa cells, 0.5 μM S1P; PTX 1 μg/μl 24 hours; GF109203X 1 μM, others 10 μM, 20 minutes
Procedure: Panel B: HeLa cells were treated with 10% fetal bovine serum for different times and stained with anti-PAM antibodies to monitor the subcellular localization.
Panel B: HeLa cells were treated with 0.5 μM S1P for 30 minutes and stained with anti-PAM antibodies to monitor the subcellular localization.
Panel C: Time dependence of PAM translocation in HeLa cells. Serum-starved HeLa cells were treated with 0.5 μM S1P for different times and stained with anti-PAM antibodies to monitor the subcellular localization.
Panel D: HeLa cells were treated with 0.5 μM S1P for 20 minutes and stained with anti-PAM antibodies to monitor the subcellular localization. Prior S1P-treatment were the cells incubated for 24 hours with […] pertussis toxin (PTX), for 20 minutes with, 1 μM GF109203X, 10 μM U0126, BAPTA-AM, U73122 or Ro31-223.
To monitor distribution of PAM in HeLa cells, cells were grown on glass coverslips in DMEM with 10% FBS and 1% penicillin/streptoMycin (Gibco, Karlsruhe, Germany). To visualize translocation of PAM HeLa, cells were serum starved overnight and subsequently treated with 10% serum for 2 hours. Wherever indicated, cells were preincubated for 30 minutes in the presence of different concentrations of inhibitors. The cells were fixed in 4% paraformaldehyde (Sigma, Taufkirchen, Germany) in PBS for 10 minutes and then permeablized in 0.1% Triton X-100 for another 5 minutes. The coverslips were blocked for 1 hour in 3% BSA in PBS and then incubated for 1 hour with anti-PAM antibody (1:50 dilution). This was followed by incubation with FITC-labeled goat anti-rabbit antibody in PBS containing 3% BSA. The cells were then washed with PBS and mounted. For the analysis confocal (BioRad, Hercules, Calif.) and regular flourescence microscopes (Nikon, Duesseldorf, Germany) were used.

[3] = test system: adenylyl cyclase (AC); test: AC activity assay, purified PAM added to spinal cord or DRG lysates; type: biochemical, rat; details: 30 nM PAM
Procedure: Panel B: Lysates of spinal cords or DRG (10 μg) were assayed for AC activity in the presence of 80 nM Gαs as described in Material and Methods. The mean ±SEM of at least 3 determinations done in triplicates is shown.
PAM purification was performed with some modifications as published previously (Scholich et al. 2001). Shortly, HeLa cells were grown in DMEM medium with 10% fetal bovine serum and 1% penicillin/streptoMycin. Confluent cells of forty 150 mm dishes were harvested with 1×PBS, 1 mM EDTA and pelleted for 5 minutes at 400×g. The cells were resuspended in TED buffer (50 mM Tris-HCl, pH 8.0, 1 mM EDTA, 1 mM DTT) containing 125 mM NaCl, 20 μg/ml of aprotinin, 20 μg/ml leupeptin, 1 mM benzamidine, 5 μg/ml soybean trypsin inhibitor and lysed by 2×5 seconds of sonication. The homogenate was centrifuged at 27000×g for 30 min at 4° C., and the supernatant was loaded on a Q-Sepharose XK16 column (Amersham, Pharmacia, Piscataway, N.J.) and eluted with a gradient of 150-350 mM NaCl in TED according to instructions of the manufacturer. The fractions were analyzed by Western blotting according to standard procedures; positive fractions were pooled and the NaCl concentration adjusted to 1 M. The protein was then loaded on a Phenyl-Sepharose XK16 column (Amersham, Pharmacia, Piscataway, N.J.) and washed with 300 mM NaCl in TED according to instructions of the manufacturer. The flow through and wash fractions contained PAM. They were pooled and the buffer exchanged for the aforementioned TED buffer containing 100 mM NaCl using Centricon 50 (Amicon, Beverly, Mass.) according to the manufacturer's instructions. The protein was then loaded on a MonoS 5/5 FPLC column (Amersham, Pharmacia, Piscataway, N.J.) and washed with the loading buffer (100 mM NaCl in TED) according to instructions of the manufacturer. The flow through was collected and applied to a Mono Q 5/5 FPLC column (Amersham, Pharmacia, Piscataway, N.J.). The protein was eluted with a gradient from 150-400 mM NaCl in TED. […]

Row | Molecule | effect of pre-treatment on S1P inhibition of Gαs-stimulated AC activity [1] | effect of pre-treatment on S1P-induced PAM translocation [2] | further results
1 | sense ODN: sense ODN used in HeLa cells, 5′-CTGTTCATGCCGGTT-3′ (DNA, backbone and methylation of C not given here) |  |  | effect on serum-induced inhibition of Gαs- and forskolin-stimulated AC activity [1]: no influence
2 | COc1ccc2c(c1)CC[C@@H]1[C@@H]2CC[C@]2(C)[C@@H](NCCCCCCN3C(=O)C=CC3=O)CC[C@@H]12 [U73122, reference compound] | abolished | abolished | 
3 | Pertussis toxin [reference compound] | eliminated | eliminated | 
4 | PAM: Protein Associated with Myc, giant protein of 510 kDa, full length purified from HeLa cells |  |  | decrease of Gαs-stimulated AC activity ([3]; DRG lysates): 32%; inhibition of Gαs-stimulated AC activity ([3]; spinal cord lysates of animals treated for 1 hour with formalin): 25%; decrease of Gαs-stimulated AC activity ([3]; spinal cord lysates of control animals): 50% and 49%
5 | C=C[C@@]1(C)CC(=O)[C@]2(O)[C@@]3(C)[C@@H](O)CCC(C)(C)[C@@H]3[C@H](O)[C@H](OC(C)=O)[C@@]2(C)O1 [forskolin] |  |  | forskolin-stimulated specific activity of AC ([1]; HeLa cell lysates, 100 μM forskolin): 464 ± 89 pmol/min/mg
6 | CN(C)CCCn1cc(C2=C(c3c[nH]c4ccccc34)C(=O)NC2=O)c2ccccc21 [GF109203X, reference compound] |  | eliminated | 
7 | CC(=O)OCOC(=O)CN(CC(=O)OCOC(C)=O)c1ccccc1OCCOc1ccccc1N(CC(=O)OCOC(C)=O)CC(=O)OCOC(C)=O [BAPTA-AM, reference compound] |  | did not interfere | 
8 | Cn1cc(C2=C(c3cn(CCCSC(=N)N)c4ccccc34)C(=O)NC2=O)c2ccccc21 [RO 31-8220] | eliminated |  | 
9 | 3M-as: antisense ODN harboring three mutations, HeLa cells, 5′-AATCCGTATGAACAC-3′ (DNA, backbone and methylation of C not given here) |  |  | effect on serum-induced inhibition of Gαs- and forskolin-stimulated AC activity [1]: no influence
